Test results published in paper PMC8524858, “Dual inhibition of αvβ6 and αvβ1 reduces fibrogenesis in lung tissue explants from patients with IPF” (Respiratory Research, 2021).

Assays:
[1] = tested on: αvβ1-induced TGF-β activation; experiment: TGF-β co-culture assay, CHO-αv cells with MLEC luciferase reporter cells; assay type: cell-based, human; details: integrin αvβ1
Protocol: SW-β6 cells and MLECs or CHO-αv cells and MLECs were cultured in 96-well plates with test compounds or antibodies for 20 h at 37 °C in a 5% CO2 incubator. […] Measurement of MLEC luciferase production resulting from αvβ6- or αvβ1-mediated TGF-β activation was performed using the Bright-Glo Luciferase Assay System (Promega; Madison, WI, USA) according to manufacturer’s instruction. Luminescence was quantified by a Tecan Spark 10M plate reader. IC50 curves were generated using Dotmatics software suite with five-parameter logistic curve fitting. Geometric mean IC50 was calculated for each compound from multiple independent analyses.

other αv integrins = experiment: Human integrin ligand-binding assays, selectivity over the panel
Protocol: (§1) Integrin ligand-binding assays were performed similar to that previously described.
Microplates were coated with recombinant human integrins dissolved in PBS (2 µg/ml, overnight at room temperature). Following removal of the coating solution, plates were washed with PBS. Plates were blocked with 200 µL/well of blocking buffer (2% bovine serum albumin [BSA] in PBS) at 37 °C for 1 h. Serial dilutions of test compounds and 2 µg/ml of recombinant ligands were added: fibronectin (R&D Systems #1918-Fn) for integrin αvβ1, LAP (Sino Biological #10804-H08H1; Beijing, China) for integrins αvβ6 and αvβ8, or biotin-tagged vitronectin (Molecular Innovations, Inc. #HVNUBIO) for integrins αvβ3 and αvβ5 in binding/wash buffer (50 mM Tris-HCl, pH 7.5; 0.1% BSA, NaCl 150 mM; 0.02% Tween-20; 1 mM CaCl2; 1 mM MnCl2; 1 mM MgCl2). Plates were incubated for 2 h at 25 °C, washed, and incubated for 1 h with biotin-labeled anti-fibronectin or anti-LAP antibodies (for αvβ1 or αvβ6/αvβ8, respectively). After washing, bound antibody was incubated with peroxidase-conjugated streptavidin (Thermo Fisher #21134; 1:2000 dilution) for 30 minutes (min) at room temperature. Following an additional washing step, 100 μL TMB substrate (BD Biosciences #555214; San Jose, CA, USA) was added and integrin binding was quantified by measuring absorbance at 450 nm by a Tecan Spark 10M plate reader (Tecan; Männedorf, Switzerland).

human integrin αvβ6 = biological target: T1, human integrin αvβ6 (Homo sapiens, UniProt P06756+P18564); experiment: Integrin ligand-binding assay, αvβ6 (LAP ligand)
T1 construct: purchased ACROBiosystems or R&D Systems IT6-H52E1 or 3817-AV
T1 sequence (P06756 31-992 limits assumed): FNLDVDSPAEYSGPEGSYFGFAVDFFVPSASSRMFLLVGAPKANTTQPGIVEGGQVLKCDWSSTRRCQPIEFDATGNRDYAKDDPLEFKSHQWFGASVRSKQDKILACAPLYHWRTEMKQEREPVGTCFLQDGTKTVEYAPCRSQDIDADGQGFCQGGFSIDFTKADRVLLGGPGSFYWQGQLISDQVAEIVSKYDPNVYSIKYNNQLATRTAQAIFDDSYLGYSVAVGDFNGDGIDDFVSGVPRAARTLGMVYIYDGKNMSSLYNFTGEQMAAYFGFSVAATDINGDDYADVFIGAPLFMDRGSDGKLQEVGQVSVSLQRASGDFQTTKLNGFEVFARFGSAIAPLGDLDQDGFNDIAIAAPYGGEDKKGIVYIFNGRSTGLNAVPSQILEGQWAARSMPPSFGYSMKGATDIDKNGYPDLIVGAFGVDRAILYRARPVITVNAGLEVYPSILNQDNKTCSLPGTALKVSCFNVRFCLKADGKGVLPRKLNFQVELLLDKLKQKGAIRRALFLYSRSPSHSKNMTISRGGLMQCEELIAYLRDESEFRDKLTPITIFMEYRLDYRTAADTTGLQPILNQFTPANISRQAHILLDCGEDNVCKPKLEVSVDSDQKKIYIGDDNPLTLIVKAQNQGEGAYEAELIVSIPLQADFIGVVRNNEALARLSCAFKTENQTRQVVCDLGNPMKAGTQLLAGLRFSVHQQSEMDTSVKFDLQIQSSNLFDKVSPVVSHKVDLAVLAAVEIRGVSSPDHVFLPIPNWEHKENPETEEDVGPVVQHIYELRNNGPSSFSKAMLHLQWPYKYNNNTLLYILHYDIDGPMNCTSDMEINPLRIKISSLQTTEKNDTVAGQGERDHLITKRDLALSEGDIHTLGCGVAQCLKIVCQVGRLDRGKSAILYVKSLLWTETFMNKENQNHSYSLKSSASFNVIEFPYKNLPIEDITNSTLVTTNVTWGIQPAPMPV
T1 sequence (P18564 22-707 limits assumed): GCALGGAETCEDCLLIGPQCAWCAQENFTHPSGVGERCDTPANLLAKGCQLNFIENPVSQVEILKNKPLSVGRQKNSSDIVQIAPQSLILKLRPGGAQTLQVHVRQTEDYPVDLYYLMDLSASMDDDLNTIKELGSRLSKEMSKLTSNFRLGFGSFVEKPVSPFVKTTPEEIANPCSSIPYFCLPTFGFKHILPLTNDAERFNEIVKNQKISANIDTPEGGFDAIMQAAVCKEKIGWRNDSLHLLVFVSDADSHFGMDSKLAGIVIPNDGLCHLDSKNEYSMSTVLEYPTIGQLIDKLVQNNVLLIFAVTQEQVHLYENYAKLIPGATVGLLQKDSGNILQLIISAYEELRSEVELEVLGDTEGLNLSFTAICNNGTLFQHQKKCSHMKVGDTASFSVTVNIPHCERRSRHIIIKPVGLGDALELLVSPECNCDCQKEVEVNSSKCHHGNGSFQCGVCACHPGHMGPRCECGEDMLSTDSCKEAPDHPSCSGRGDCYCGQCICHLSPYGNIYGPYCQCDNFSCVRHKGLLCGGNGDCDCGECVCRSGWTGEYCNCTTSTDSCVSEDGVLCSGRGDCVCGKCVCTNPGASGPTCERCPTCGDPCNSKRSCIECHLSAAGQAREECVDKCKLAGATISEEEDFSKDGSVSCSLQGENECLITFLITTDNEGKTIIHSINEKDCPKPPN
Protocol: as §1
(§2) Microplates were coated with recombinant human integrins dissolved in PBS (2 µg/ml, overnight at room temperature). Following removal of the coating solution, plates were washed with PBS. Plates were blocked with 200 µL/well of blocking buffer (2% bovine serum albumin [BSA] in PBS) at 37 °C for 1 h. […] Plates were incubated for 2 h at 25 °C, washed, and incubated for 1 h with biotin-labeled anti-fibronectin or anti-LAP antibodies (for αvβ1 or αvβ6/αvβ8, respectively).

human integrin αvβ3 = biological target: T2, human integrin αvβ3 (Homo sapiens, UniProt P05106+P06756); experiment: Integrin ligand-binding assay, αvβ3 (vitronectin ligand)
T2 construct: purchased R&D Systems 3050-AV
T2 sequence (P06756 31-992 limits assumed): as the sequence (P06756 31-992 limits assumed) above
T2 sequence (P05106 27-718 limits assumed): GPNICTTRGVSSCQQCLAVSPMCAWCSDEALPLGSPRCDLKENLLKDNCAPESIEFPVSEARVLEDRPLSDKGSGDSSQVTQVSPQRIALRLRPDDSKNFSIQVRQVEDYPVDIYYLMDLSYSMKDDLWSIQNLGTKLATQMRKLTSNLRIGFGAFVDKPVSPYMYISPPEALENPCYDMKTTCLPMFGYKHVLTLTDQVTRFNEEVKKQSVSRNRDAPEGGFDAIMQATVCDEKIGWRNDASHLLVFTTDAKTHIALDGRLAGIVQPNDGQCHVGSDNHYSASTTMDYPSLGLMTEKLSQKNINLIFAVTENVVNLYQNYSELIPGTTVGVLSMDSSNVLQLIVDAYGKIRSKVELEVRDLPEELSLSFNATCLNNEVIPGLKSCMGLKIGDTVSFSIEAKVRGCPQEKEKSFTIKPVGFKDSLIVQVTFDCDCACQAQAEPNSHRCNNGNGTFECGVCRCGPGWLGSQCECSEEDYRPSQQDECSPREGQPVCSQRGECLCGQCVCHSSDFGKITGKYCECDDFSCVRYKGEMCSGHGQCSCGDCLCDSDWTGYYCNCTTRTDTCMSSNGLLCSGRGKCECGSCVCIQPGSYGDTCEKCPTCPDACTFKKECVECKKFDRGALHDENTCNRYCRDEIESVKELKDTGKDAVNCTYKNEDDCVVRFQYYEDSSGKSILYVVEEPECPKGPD
Protocol: as §1, §2

[2] = tested on: PCLSs prepared from explanted lung tissue from patients with IPF; experiment: Fibrotic gene expression in PCLSs from IPF lung explants; assay type: cell-based, human
Description: PCLSs were generated from explanted lung tissue from patients with IPF and cultured as previously described. Mouse PCLSs were generated and cultured as previously described. Messenger ribonucleic acid (mRNA) levels in lysates prepared from snap-frozen tissue slices were quantified via NanoString PlexSet reagents and nCounter SPRINT Profiler (NanoString; Seattle, WA, USA; Additional file 1: Table S2) or TaqMan primers/probes on a Bio-Rad CFX96 thermocycler (Bio-Rad; Hercules, CA, USA; Additional file 1: Table S3).
(§3) Human PCLSs were generated from lung tissue explants from patients with IPF undergoing transplant surgery and cultured based on previously reported methods (E7-E12). Slices of tissue (400 µm) were cut using a Compresstome VF-300-0Z (Precisionary Instruments; Natick, MA, USA).
Slices from each individual core (human) or mouse were distributed among the treatment groups to control for variability in the fibrotic injury within the tissue. […] After 3 or 7 days in culture, slices were washed and snap-frozen. Viability of sentinel slices on Days 0/1 and 3/7 was determined using WST-1 Cell Proliferation Reagent (Sigma 5015944001; St Louis, MO, USA).
For all figures (except Fig. 2B, Fig. S2, and Fig. S4), snap-frozen tissue slices were incubated in one-third RLT buffer (Qiagen #79216; Venlo, Netherlands) supplemented with 2 mg/ml proteinase K (Sigma-Aldrich #3115887001; St Louis, MO, USA) at 55 °C for 2 h 45 min, with periodic vortexing to generate ribonucleic acid (RNA)-compatible tissue lysate. This lysate was incubated overnight with probes from a custom fibrosis gene panel and NanoString PlexSet reagents (Table S2). The following day, samples were analyzed on a NanoString nCounter SPRINT Profiler (NanoString; Seattle, WA, USA). Messenger RNA (mRNA) counts were normalized to housekeeping genes (GUSB, HPRT1, RPLP0, and/or POLR1B) and total mRNA counts, relative to vehicle-treated control from the same experiment, are reported.

[3] = tested on: Smad2 phosphorylation (canonical TGF-β signaling) in IPF PCLSs; experiment: Smad2 phosphorylation in PCLSs from IPF explant tissue; assay type: cell-based, human; details: 7 days; n = 3 individual patients (Fig. S1B)
Protocol: Integrin αvβ1 protein levels and Smad phosphorylation levels in tissues or cells were quantified by the Meso Scale Discovery custom electrochemiluminescence assay.
Biotin-labeled antibodies for total Smad2/3, phosphorylated Smad2 (pSmad2), and total Smad2 (Cell Signaling Technology; Danvers, MA, USA), and antibodies for phosphorylated Smad3 (pSmad3) and total Smad3 (Abcam; Cambridge, UK) were utilized for pSmad electrochemiluminescence assays.
pSmad2 and total Smad2 quantitation were performed similarly to that described for pSmad3 and total Smad3 above, with the exception that U-PLEX linker conjugated biotinylated anti-pSmad2 and total Smad2 antibodies were bound to U-PLEX MSD assay plates (MSD; K15227N-2) according to manufacturer’s instruction, followed by unknown sample incubation and addition of sulfo-tag-labeled anti-Smad2/3 antibody.
as §3

human integrin αvβ5 = biological target: T3, human integrin αvβ5 (Homo sapiens, UniProt P06756+P18084); experiment: Integrin ligand-binding assay, αvβ5 (vitronectin ligand)
T3 construct: purchased R&D Systems 2528-AV
T3 sequence (P06756 31-992 limits assumed): as the sequence (P06756 31-992 limits assumed) above
T3 sequence (P18084 24-719 limits assumed): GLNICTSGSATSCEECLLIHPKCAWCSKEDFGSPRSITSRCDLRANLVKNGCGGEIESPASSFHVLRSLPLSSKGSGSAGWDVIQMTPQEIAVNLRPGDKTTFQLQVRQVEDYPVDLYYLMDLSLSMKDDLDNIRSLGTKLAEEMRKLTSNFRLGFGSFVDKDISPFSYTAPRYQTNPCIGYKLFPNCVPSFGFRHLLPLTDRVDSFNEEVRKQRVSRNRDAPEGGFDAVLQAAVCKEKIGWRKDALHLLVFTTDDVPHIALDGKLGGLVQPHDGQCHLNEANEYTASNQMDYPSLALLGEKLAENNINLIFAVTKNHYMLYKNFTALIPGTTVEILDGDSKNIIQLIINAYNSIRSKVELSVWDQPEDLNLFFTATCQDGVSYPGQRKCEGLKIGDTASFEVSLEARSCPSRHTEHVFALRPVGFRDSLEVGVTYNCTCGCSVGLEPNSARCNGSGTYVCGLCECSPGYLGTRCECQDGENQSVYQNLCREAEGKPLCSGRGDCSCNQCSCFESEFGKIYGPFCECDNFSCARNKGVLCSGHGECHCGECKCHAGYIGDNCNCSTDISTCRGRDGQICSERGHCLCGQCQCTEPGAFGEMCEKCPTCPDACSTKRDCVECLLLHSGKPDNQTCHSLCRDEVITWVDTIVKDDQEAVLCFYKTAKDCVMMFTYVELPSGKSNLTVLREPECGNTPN
Protocol: as §1, §2

[4] = 7 days, PLN-74809 200 nM, relative to vehicle (Fig. 6B)

With `COCCN(CCCCc1ccc2c(n1)NCCC2)CC[C@H](Nc1ncnc2ccccc12)C(=O)O` [PLN-74809] the “Fold selectivity (vs αvβ6)” value ([1]; TGF-β activation) was 0.6×, the IC50 [1] was 19.2 nM and the “selectivity over other αv integrins” value (other αv integrins) was ≥ 445 fold. The IC50 (human integrin αvβ6) was 5.7 nM, the “Fold selectivity (vs αvβ6)” value (human integrin αvβ6; ligand binding) was 1× and the IC50 (human integrin αvβ3) was > 10000 nM. For the same compound, the “Fold selectivity (vs αvβ6)” value (human integrin αvβ3; ligand binding) was > 1754×, the “reduction of COL1A1 mRNA expression” value ([2]; 7-day incubation, Compound A 471 nM, 3G9 0.5 µg/ml, PLN-74809 1.82 µM, ALK5i R-268712 1 µM, vs vehicle (Fig. 1A)) was 54% and the “reduction of COL1A1 mRNA expression” value ([2]; 7 days, PLN-74809 200 nM, nintedanib 75 nM, pirfenidone 50 µM, vs DMSO (Fig. 6A)) was 42%. The “reduction of COL3A1 expression” value [2, 4] was 30%, the “reduction of SERPINE1 expression” value [2, 4] was 39% and the “reduction of TIMP1 expression” value [2, 4] was 26%. For the same compound, the “reduction of collagen gene expression” value ([2]; at concentrations as low as 2 nM, explanted tissue from a patient with IPF) was ~ 50%, the “lowest concentration sufficient to significantly reduce COL1A1 expression” value ([2]; dose titration, PCLSs from a single patient with IPF (Fig. S1C)) was 2 nM and the “reduction in Smad2 phosphorylation” value [3] was “approximately 50%”. For the same compound, the IC50 (human integrin αvβ5) was 6990 nM and the “Fold selectivity (vs αvβ6)” value (human integrin αvβ5; ligand binding) was 1226×.
